Data taken from US20260314597A1, “A NOVEL APPROACH TO INTERFERE IN THE PHENYLPROPANOID BIOSYNTHETIC PATHWAY TO REDUCE PINK-RIB DISORDER IN FRESH LETTUCE” (University of Florida Research Foundation, Inc., priority 2022, published 2026).
“Also recorded” adds a separate entry of the source.

How the values were obtained:
[1] = test system: iceberg and Romaine lettuce midribs; assay: Visual (subjective) pink rib development in wounded, immersed lettuce midribs stored at 5° C.; type: in vivo; settings: for reduction of pink rib severity: naringenin (1.8 mM) and serotonin, reason for not imaging
Method: Six preliminary experiments were performed to determine treatment conditions for the three final experiments reported here. It was determined that the method developed by Cantwell (2016) induced pink rib discoloration in lettuce midribs during storage at 5° C. via mimicking mechanical damage and was, therefore, selected for use in all preliminary and final tests. […] Concentrations evaluated were: L-cysteine (0.4, 0.8, 2.1, 4.1, 8.3 mM), naringenin (0.2, 0.4, 0.9, 1.8, 3.7 mM), serotonin (2.8, 5.7 mM), and melatonin (0.2, 0.4, 1.1, 2.2, 4.3 mM) (data not presented). […] Therefore, this study employed the one or two concentrations for each compound with the greatest potential efficacy in three independent tests, Test 1 to 3 (Table 1).
For Test 1, the evaluations for pink rib development, protein quantification, and enzyme activity were conducted with Romaine and iceberg lettuce heads (36 heads per type; cultivars unknown) purchased (February 2020) upon arrival at a local grocery store in Gainesville, FL, and immediately transported to the Postharvest Horticulture Laboratory at the University of Florida in Gainesville, FL. For Test 2, metabolite extraction and detection were conducted with commercially grown, harvested, and cooled Romaine (‘Tall Guzmaine’) and iceberg (‘Chosen’) lettuce (December 2020) grown in Belle Glade, FL. For Test 3, untargeted metabolomics was performed using commercially grown, harvested, and cooled Romaine (‘Manatee’) lettuce grown in Belle Glade, FL (April 2021). To keep the lettuce head samples cool while preventing freeze damage during transport, a 3- to 6-inch layer of crushed ice was placed on the bottom of each 114-L cooler. A piece of waxed, corrugated fiberboard was placed on top of the ice prior to packing with the lettuce samples for transport the same day to the Postharvest Horticulture Laboratory in Gainesville (approximately 4 h distant).
In all tests, experimental setup began immediately upon arrival to the laboratory. 90 outer leaves were randomly selected from 18 to 22 lettuce heads that met commercial and damage-free quality standards. A midrib segment (12.5 cm) was excised from the center of each leaf and excess leaf blade tissue was trimmed parallel to the midrib. This procedure was adapted from the wounding procedure of Cantwell (2016). Each midrib was then partially sliced transversally at 1.3-cm increments along the midrib. Midribs (n=15) were immediately immersed for 30 s in one of five treatment solutions: deionized water (wounded control), L-cysteine (4.1 mM), naringenin (1.8 mM) with 20% dimethyl sulfoxide (DMSO), serotonin (2.8 or 5.7 mM) or melatonin (4.3 mM) with 0.50% DMSO. Immediately following immersion, the midribs for each treatment were patted dry using paper towels and placed (n=5) in a breathable, high-density polyethylene bag (n=3) (Narrow Profile Produce Bags [14×18 inches] Model No. S-19156, Uline®, Pleasant Prairie, WI). Unwounded control midribs were stored in the same manner. To allow for direct comparison, each cut site on each midrib was assigned an initial discoloration value on day 1 based on the coloration of the rib. Samples were stored at 5° C. with 95-98% relative humidity (RH) for 5 d, simulating commercial storage.
All chemicals were of laboratory or reagent grade from Alfa Aesar (Thermo Fisher Scientific, Ward Hill, MA, USA) or Phyto Technology Laboratories (Shawnee Mission, KS, USA). L-cysteine (4.1 mM) solution was prepared by dissolving […] in 100 ml deionized water. Naringenin (1.8 mM) solution was prepared by dissolving […] in 20 mL of DMSO and diluting to a 100 mL volume with deionized water. A stock solution of serotonin (5.7 mM) was prepared by dissolving 100 mg of serotonin in 100 ml of deionized water; a second solution of serotonin (2.8 mM) was prepared by diluting the stock solution two-fold with deionized water. […]

apple and pear discs = settings: serotonin 1 mM, 4° C., cited from earlier work
fresh lettuce midribs = settings: literature treatments; cited from earlier work
PAL = settings: naringenin; cited from earlier work
[2] = naringenin; in vitro for lettuce; cited from earlier work
PPO = settings: role: substrate; lettuce tissues; cited from earlier work

NCCc1c[nH]c2ccc(O)cc12 [serotonin]
pink rib severity (visual rating) ([1]; Romaine, serotonin 2.8 or 5.7 mM, 5 d at 5° C.): moderately severe (4=moderately severe) | pink rib severity (visual rating) ([1]; iceberg, serotonin 2.8 or 5.7 mM, 5 d at 5° C.): moderate (3=moderate) | reduction of pink rib severity [1]: unsuccessful reduction of pink rib severity | effect on pink rib development ([1]; serotonin, iceberg and Romaine, 5 d at 5° C.): did not reduce pink rib development in either lettuce type | extension of bright appearance (apple and pear discs; 30-min submersion): up to 6 months | browning inhibition compared with ascorbic acid (apple and pear discs; 30 min): more effective than ascorbic acid | duration of browning inhibition (apple and pear discs; 30 min): up to 24 h

O=C(O)c1ccc(O)cc1 [p-hydroxybenzoic acid]
effectiveness in reducing pink rib discoloration (fresh lettuce midribs): slightly effective or completely ineffective

[Cl-].[Na+] [NaCl]
effectiveness in reducing pink rib discoloration (fresh lettuce midribs): slightly effective or completely ineffective

O=C(O)CC(O)(CC(=O)O)C(=O)O [citric acid]
effectiveness in reducing pink rib discoloration (fresh lettuce midribs): slightly effective or completely ineffective

C=C [ethylene]
effectiveness in reducing pink rib discoloration (fresh lettuce midribs): slightly effective or completely ineffective

N[C@@H](CCC(=O)N[C@@H](CS)C(=O)NCC(=O)O)C(=O)O [glutathione]
effectiveness in reducing pink rib discoloration (fresh lettuce midribs): slightly effective or completely ineffective

CCCCCCc1ccc(O)cc1O [4-hexylresorcinol]
effectiveness in reducing pink rib discoloration (fresh lettuce midribs): slightly effective or completely ineffective

O=C1C[C@@H](c2ccc(O)cc2)Oc2cc(O)cc(O)c21 [naringenin]
pink rib severity (visual rating) ([1]; iceberg, naringenin 1.8 mM, 5 d at 5° C.): moderately severe (4=moderately severe) | pink rib severity (visual rating) ([1]; iceberg, naringenin immersion up to 3.7 mM, 5 d at 5° C.): moderately severe (4=moderately severe) | reduction of pink rib severity [1]: unsuccessful reduction of pink rib severity; also recorded: equally unsuccessful | effect on pink rib ([1]; naringenin up to 3.7 mM, 5 d at 5° C.): did not successfully reduce pink rib | PAL activity and subsequent development of phenylpropanoids (PAL): represses PAL activity and subsequent development of phenylpropanoids | antioxidant capacity (FRAP) [2]: increase in antioxidant capacity

O=C(/C=C/c1ccc(O)c(O)c1)O[C@@H]1C[C@](O)(C(=O)O)C[C@@H](O)[C@H]1O [chlorogenic acid]
specificity to PPO (PPO): greatest specificity to PPO

CC1=CC1 [1-methylcyclopropene]
effectiveness in reducing pink rib discoloration (fresh lettuce midribs): slightly effective or completely ineffective

O=C(O)CN(CCN(CC(=O)O)CC(=O)O)CC(=O)O [ethylenediaminetetracetic acid (EDTA), ethylenediaminetetracetic acid]
effectiveness in reducing pink rib discoloration (fresh lettuce midribs): slightly effective or completely ineffective
